Data: paper PMC6823370, “A novel nucleoside rescue metabolic pathway may be responsible for therapeutic effect of orally administered cordycepin” (Scientific Reports, 2019)
Values after ≈ are worked out from the molar mass of the structure shown. Like-named read-outs stand apart in the source and are kept apart here.

What was measured:
[1] = Plasma stability of cordycepin in rat plasma; type: in vitro ADME; conditions: read-out: ex vivo stability half-life (t1/2) in plasma
Experimental: Stability of cordycepin in plasma was tested using human and rat plasma by following a previously reported method with minor modifications. Cordycepin was spiked into the plasma at 10 µM and the samples were incubated in a shaking incubator (Thermo Scientific MaxQ4000, Waltham, MA, USA) at 37 °C and shaken at 250 rpm. Samples (100 µL) were withdrawn at predetermined time points. […] The experiments were performed in triplicates.
Samples from studies of plasma stability, protein binding, biorelevant solubility and liver microsomal stability were subjected to liquid-liquid extraction and HPLC-UV analysis. To 100 µL of sample, internal standard (2′-deoxyadenosine) was spiked at 10 µg/mL and 300 µL of 0.1 M NaOH was added. Extraction solvent (3 mL) of ethyl acetate-isopropyl alcohol (85:15, v/v) was added and vortex-mixed for 10 min. Samples were then centrifuged at 1160 g for 5 min and the supernatant was transferred and dried under N2 gas. Dried samples were reconstituted with 100 uL of deionised distilled water (DDW) and 40 µL was injected into the HPLC-UV. The HPLC-UV setup was adopted from a validated method[22] with addition of a gradient scheme to elute the impurities from samples. Waters Alliance 2695 module with Waters 996 PDA detector was used for the HPLC-UV system with Capcell Pak C18 3 µm, 4.6 × 150 mm as the stationary phase. […]

[2] = Plasma protein binding, ultrafiltration, rat plasma; type: in vitro ADME; conditions: read-out: fraction unbound (Fub) in plasma
Experimental: (§1) Cordycepin was spiked into the plasma to give concentrations of 100, 500, 1000 and 5000 ng/mL, and the samples (300 µL) were incubated in the shaking incubator at 250 rpm and 37 °C for 1 h. Following incubation, 100 µL was withdrawn and analysed for Ct. The remaining sample was transferred to a filter device (Amicon Ultra-0.5 Centrifugal Filter Units, MWCO 3000, Merck Millipore, Cork, Ireland) and was centrifuged at 14,000 g for 10 min at room temperature. Filtrate was collected and analysed for Cf. The fraction unbound in plasma (Fub) was calculated by the equation: Cf/Ct × 100 = Fub. Non-specific binding of cordycepin to the filter device was tested at the same concentration range using phosphate buffered saline (PBS) instead of plasma. Experiments were conducted in quadruplicates.
(§2) Samples from studies of plasma stability, protein binding, biorelevant solubility and liver microsomal stability were subjected to liquid-liquid extraction and HPLC-UV analysis. To 100 µL of sample, internal standard (2′-deoxyadenosine) was spiked at 10 µg/mL and 300 µL of 0.1 M NaOH was added. Extraction solvent (3 mL) of ethyl acetate-isopropyl alcohol (85:15, v/v) was added and vortex-mixed for 10 min. Samples were then centrifuged at 1160 g for 5 min and the supernatant was transferred and dried under N2 gas. […]

[3] = Plasma protein binding, ultrafiltration, human plasma; type: in vitro ADME; conditions: read-out: fraction unbound (Fub) in plasma
Experimental: as §1, §2

[4] = In vivo pharmacokinetics in rats after intravenous or oral cordycepin; set-up: species or system Sprague Dawley rats; conditions: for AUC(0-t) / C0 / clearance: in vivo; for AUC(0-t) / C0 / AUC0→t/Dose of cordycepin: rat plasma; for AUC(0-t): read-out: AUC0→t of cordycepin; for C0: read-out: C0 of cordycepin; for clearance: read-out: CL of cordycepin (converted)
Experimental: Protocols for the animal experiments in this study were reviewed and approved by the University of Nottingham Ethical Review Committee in accordance with the Animals [Scientific Procedures] Act 1986. Four male Sprague Dawley rats (Charles River Laboratories, UK) of 300–350 g body weight were used. The animals were housed in the Bio Support Unit, University of Nottingham at controlled temperature, 12 h light/dark cycle and free access to food and water. The animals were allowed to acclimatise for at least six days prior to any procedures.
Prior to pharmacokinetic studies, jugular vein cannulation surgery was performed under general anaesthesia (<3% isoflurane inhalation) for blood sampling or intravenous drug administration. Following two nights of recovery from surgery, the animals were intravenously or orally administered with the PBS-based formulation (5.5 mg/mL cordycepin) developed in a previously reported study. The dose was 8 or 20 mg/kg for intravenous administration and 8 or 80 mg/kg for oral administration. […] When whole blood was analysed, an aliquot was withdrawn immediately after mixing with the pretreated pentostatin. Otherwise, the mixture was centrifuged (3000 g, 10 min) to obtain plasma and samples were stored within the storage conditions tested prior to analysis.
Samples from Caco-2 permeability, in vitro determination of CordyTP formation and in vivo experiments were subjected to protein precipitation followed by LC-MS/MS analysis. To 50 µL of rat plasma sample, 150 µL of internal standard solution (1.67 µg/mL 2-chloroadenosine in methanol) was added. The samples were then vortex-mixed for 10 s and were centrifuged for 3 min at 17949 g. Supernatant (20 µL) was collected and diluted 10-fold with DDW before injection into the LC-MS/MS for analysis of cordycepin and 3′-deoxyinosine. For analysis of CordyTP, the supernatant was filtered using filter tubes mentioned above and injected without dilution. Tissue samples were homogenised using Bullet Blender Gold (Next Advance, Inc., Troy, NY) in methanol (1:3 w/v) and centrifuged for 3 min at 17949 g. The supernatant was filtered and injected for analysis of CordyTP or diluted 10-fold with DDW for analysis of cordycepin and 3′-deoxyinosine. The LC-MS/MS system was a API4000 QTrap (AB Sciex, Warrington, UK) equipped with HPLC setup of SCL10Avp controller, LC10ADvp pump and SILHTC autosampler (Shimadzu, Milton Keynes, UK). Three different methods were utilised for each compound and multiple reaction monitoring parameters of the MS/MS conditions are shown in Table 1. The HPLC conditions including stationary phases and specific mass spectrometry parameters are shown in Supplementary Information 2. The LC-MS/MS method for cordycepin was fully validated in terms of accuracy, precision, sensitivity, selectivity, linearity and sample storage stability in accordance with the Guidance for Industry, Bioanalytical Method Validation, (2018) published by the US FDA (refer to Supplementary Information 3 for validation procedures and results)[53].
Data are presented as mean ± standard deviation (SD). A two-tailed unpaired t-test was applied for assessment of statistical significance of differences between two groups. For three or more groups, the statistical significance was assessed by application of a one-way ANOVA followed by Tukey’s multiple comparisons test. A p-value lower than 0.05 was deemed statistically significant. Statistical analyses were conducted using GraphPad Prism version 7.01 (GraphPad Software, Inc., La Jolla, CA, USA). Pharmacokinetic parameters were obtained by non-compartmental analysis using Phoenix WinNonlin 6.3 software (Pharsight, Mountain View, CA, USA).
For calculation of pharmacokinetic parameters, the plasma concentration-time curve was plotted in a semi-log scale. From the plot, the elimination rate constant (ke) was calculated. Elimination half-life (t1/2) wasthen calculated using the following equation: […]

[5] = set-up: method as in PMID 28560504; conditions: previously reported; cited from earlier work
[6] = male, Sprague Dawley, intravenous cordycepin 8 mg/kg
[7] = male, Sprague Dawley, intravenous cordycepin 20 mg/kg

In the case of Nc1ncnc2c1ncn2[C@@H]1O[C@H](CO)C[C@H]1O [cordycepin, 3′-deoxyadenosine], the half-life at 10 µM [1] is reported as 25 ± 0.7 min, the fraction unbound at 1 h [2] is reported as over 0.8 and the fraction unbound at 1 h [3] is reported as over 0.8. The AUC(0-t) [4, 6] was 196 ± 94 ng·h/mL, the C0 [4, 6] was 890 ± 576 ng/mL and the AUC(0-t) [4, 7] was 232 ± 106 ng·h/mL. It also gave a C0 [4, 7] of 12300 ± 8840 ng/mL, a clearance ([4]; male, Sprague Dawley, rat, intravenous cordycepin 8 mg/kg) of 1720 mL/min/kg and a clearance ([4]; male, Sprague Dawley, rat, intravenous cordycepin 20 mg/kg) of 1520 mL/min/kg. The blood plasma ratio ([4]; male, Sprague Dawley, rat, whole blood and plasma, intravenous, 20 mg/kg, intravenous cordycepin 20 mg/kg) was 0.68 ± 0.27, the AUC0→t/Dose of cordycepin ([4]; intravenous cordycepin 8 mg/kg) was 25 ± 12 ng·kg·h/mL/mg and the AUC0→t/Dose of cordycepin ([4]; intravenous cordycepin 20 mg/kg) was 12 ± 5 ng·kg·h/mL/mg. For the same compound, the “increase of AUC when dose increased from 8 to 20 mg/kg” value ([4]; rat, intravenous cordycepin) was 1.18 fold, the “increase of C0 when dose increased from 8 to 20 mg/kg” value ([4]; rat, intravenous cordycepin) was 13.8 fold and the blood/plasma ratio ([4]; rat, intravenous cordycepin 20 mg/kg) was under 1. For the same compound, the “cordycepin in plasma after oral administration” value ([4]; rat, oral cordycepin 8 or 80 mg/kg, any time point, limit of quantification 2 ng/mL) was “not detected in plasma at all” and the solubility in water [5] was 5000 ± 100 µg/mL (≈ 19.9 mM).
